Test results: the NIST ThermoML archive (doi:10.1021/je900503p)

Tests used:
[1] = xn = mol fraction of the nth substance listed; details: 101 kPa, Liquid
[2] = refractive index (Na D-line) (dimensionless); xn = mol fraction of the nth substance listed; details: 101 kPa, Liquid
[3] = relative permittivity at zero frequency (dimensionless); xn = mol fraction of the nth substance listed; details: 101 kPa, Liquid, Dekameter

O=C1CCCO1 [γ-butyrolactone] + CCCCO
Details	mass density [kg/m3]	refractive index	relative permittivity at zero frequency
[1], 293.15 K, x1 = 0.0786	831.12	–	–
[1], 293.15 K, x1 = 0.1555	852.82	–	–
[1], 293.15 K, x1 = 0.2466	879.28	–	–
[1], 293.15 K, x1 = 0.2901	892.18	–	–
[1], 293.15 K, x1 = 0.3664	915.23	–	–
[1], 293.15 K, x1 = 0.4332	935.89	–	–
[1], 293.15 K, x1 = 0.4988	956.54	–	–
[1], 293.15 K, x1 = 0.5616	976.71	–	–
[1], 293.15 K, x1 = 0.6336	1000.34	–	–
[1], 293.15 K, x1 = 0.7033	1023.73	–	–
[1], 293.15 K, x1 = 0.7956	1055.39	–	–
[1], 293.15 K, x1 = 0.8654	1080.09	–	–
[1], 293.15 K, x1 = 0.9334	1104.36	–	–
[1], 293.15 K, x1 = 0.9888	1124.69	–	–
[1], 298.15 K, x1 = 0.0786	827.22	–	–
[1], 298.15 K, x1 = 0.1555	848.94	–	–
[1], 298.15 K, x1 = 0.2466	875.32	–	–
[1], 298.15 K, x1 = 0.2901	888.19	–	–
[1], 298.15 K, x1 = 0.3664	911.2	–	–
[1], 298.15 K, x1 = 0.4332	931.77	–	–
[1], 298.15 K, x1 = 0.4988	952.35	–	–
[1], 298.15 K, x1 = 0.5616	972.46	–	–
[1], 298.15 K, x1 = 0.6336	996.03	–	–
[1], 298.15 K, x1 = 0.7033	1019.35	–	–
[1], 298.15 K, x1 = 0.7956	1050.92	–	–
[1], 298.15 K, x1 = 0.8654	1075.34	–	–
[1], 298.15 K, x1 = 0.9334	1099.62	–	–
[1], 298.15 K, x1 = 0.9888	1119.77	–	–
[1], 303.15 K, x1 = 0.0786	823.57	–	–
[1], 303.15 K, x1 = 0.1555	845.28	–	–
[1], 303.15 K, x1 = 0.2466	871.63	–	–
[1], 303.15 K, x1 = 0.2901	884.43	–	–
[1], 303.15 K, x1 = 0.3664	907.36	–	–
[1], 303.15 K, x1 = 0.4332	927.87	–	–
[1], 303.15 K, x1 = 0.4988	948.38	–	–
[1], 303.15 K, x1 = 0.5616	968.43	–	–
[1], 303.15 K, x1 = 0.6336	991.92	–	–
[1], 303.15 K, x1 = 0.7033	1015.09	–	–
[1], 303.15 K, x1 = 0.7956	1046.55	–	–
[1], 303.15 K, x1 = 0.8654	1070.81	–	–
[1], 303.15 K, x1 = 0.9334	1094.88	–	–
[1], 303.15 K, x1 = 0.9888	1114.92	–	–
[1], 313.15 K, x1 = 0.0786	816.82	–	–
[1], 313.15 K, x1 = 0.1555	839.3	–	–
[1], 313.15 K, x1 = 0.2466	866.62	–	–
[1], 313.15 K, x1 = 0.2901	879.94	–	–
[1], 313.15 K, x1 = 0.3664	903.64	–	–
[1], 313.15 K, x1 = 0.4332	924.87	–	–
[1], 313.15 K, x1 = 0.4988	946.17	–	–
[1], 313.15 K, x1 = 0.5616	966.89	–	–
[1], 313.15 K, x1 = 0.6336	991.1	–	–
[1], 313.15 K, x1 = 0.7033	1015.08	–	–
[1], 313.15 K, x1 = 0.7956	1047.44	–	–
[1], 313.15 K, x1 = 0.8654	1072.54	–	–
[1], 313.15 K, x1 = 0.9334	1097.32	–	–
[1], 313.15 K, x1 = 0.9888	1118.1	–	–
[2], 293.15 K, x1 = 0.1098	–	1.4026	–
[2], 293.15 K, x1 = 0.2154	–	1.4063	–
[2], 293.15 K, x1 = 0.3009	–	1.4096	–
[2], 293.15 K, x1 = 0.4127	–	1.4136	–
[2], 293.15 K, x1 = 0.5088	–	1.4172	–
[2], 293.15 K, x1 = 0.6124	–	1.4213	–
[2], 293.15 K, x1 = 0.7001	–	1.4247	–
[2], 293.15 K, x1 = 0.8133	–	1.4294	–
[2], 293.15 K, x1 = 0.9078	–	1.4332	–
[2], 298.15 K, x1 = 0.1098	–	1.4014	–
[2], 298.15 K, x1 = 0.2154	–	1.4051	–
[2], 298.15 K, x1 = 0.3009	–	1.4083	–
[2], 298.15 K, x1 = 0.4127	–	1.4124	–
[2], 298.15 K, x1 = 0.5088	–	1.416	–
[2], 298.15 K, x1 = 0.6124	–	1.42	–
[2], 298.15 K, x1 = 0.7001	–	1.4234	–
[2], 298.15 K, x1 = 0.8133	–	1.4279	–
[2], 298.15 K, x1 = 0.9078	–	1.4316	–
[2], 303.15 K, x1 = 0.1098	–	1.4	–
[2], 303.15 K, x1 = 0.2154	–	1.4038	–
[2], 303.15 K, x1 = 0.3009	–	1.407	–
[2], 303.15 K, x1 = 0.4127	–	1.4111	–
[2], 303.15 K, x1 = 0.5088	–	1.4147	–
[2], 303.15 K, x1 = 0.6124	–	1.4186	–
[2], 303.15 K, x1 = 0.7001	–	1.4219	–
[2], 303.15 K, x1 = 0.8133	–	1.4263	–
[2], 303.15 K, x1 = 0.9078	–	1.43	–
[2], 313.15 K, x1 = 0.1098	–	1.3973	–
[2], 313.15 K, x1 = 0.2154	–	1.4013	–
[2], 313.15 K, x1 = 0.3009	–	1.4044	–
[2], 313.15 K, x1 = 0.4127	–	1.4085	–
[2], 313.15 K, x1 = 0.5088	–	1.4121	–
[2], 313.15 K, x1 = 0.6124	–	1.4158	–
[2], 313.15 K, x1 = 0.7001	–	1.4192	–
[2], 313.15 K, x1 = 0.8133	–	1.4232	–
[2], 313.15 K, x1 = 0.9078	–	1.4267	–
[3], 293.15 K, x1 = 0.1098	–	–	20.68
[3], 293.15 K, x1 = 0.2154	–	–	22.37
[3], 293.15 K, x1 = 0.3009	–	–	23.98
[3], 293.15 K, x1 = 0.4127	–	–	26.17
[3], 293.15 K, x1 = 0.5088	–	–	28.44
[3], 293.15 K, x1 = 0.6124	–	–	31.29
[3], 293.15 K, x1 = 0.7001	–	–	33.79
[3], 293.15 K, x1 = 0.8133	–	–	37.12
[3], 293.15 K, x1 = 0.9078	–	–	40.02
[3], 298.15 K, x1 = 0.1098	–	–	19.61
[3], 298.15 K, x1 = 0.2154	–	–	21.23
[3], 298.15 K, x1 = 0.3009	–	–	22.55
[3], 298.15 K, x1 = 0.4127	–	–	24.92
[3], 298.15 K, x1 = 0.5088	–	–	27.23
[3], 298.15 K, x1 = 0.6124	–	–	29.79
[3], 298.15 K, x1 = 0.7001	–	–	32.21
[3], 298.15 K, x1 = 0.8133	–	–	36.01
[3], 298.15 K, x1 = 0.9078	–	–	39.13
[3], 303.15 K, x1 = 0.1098	–	–	18.57
[3], 303.15 K, x1 = 0.2154	–	–	19.99
[3], 303.15 K, x1 = 0.3009	–	–	21.61
[3], 303.15 K, x1 = 0.4127	–	–	23.88
[3], 303.15 K, x1 = 0.5088	–	–	26.16
[3], 303.15 K, x1 = 0.6124	–	–	28.82
[3], 303.15 K, x1 = 0.7001	–	–	31.34
[3], 303.15 K, x1 = 0.8133	–	–	35.03
[3], 303.15 K, x1 = 0.9078	–	–	38.46
[3], 313.15 K, x1 = 0.1098	–	–	16.65
[3], 313.15 K, x1 = 0.2154	–	–	18.16
[3], 313.15 K, x1 = 0.3009	–	–	19.99
[3], 313.15 K, x1 = 0.4127	–	–	22.01
[3], 313.15 K, x1 = 0.5088	–	–	24.43
[3], 313.15 K, x1 = 0.6124	–	–	26.76
[3], 313.15 K, x1 = 0.7001	–	–	29.25
[3], 313.15 K, x1 = 0.8133	–	–	33.05
[3], 313.15 K, x1 = 0.9078	–	–	36.56
